Patent US8247211B2, “Glycopeptide antibiotics” (American Cyanamid Company, priority 2001, dated 2012)
Values after ≈ are worked out from the molar mass of the structure shown.

How the values were obtained:
Assay in all cases: In vitro antibacterial evaluation: minimum inhibitory concentration (MIC), broth dilution method
Format in all cases: cell-based
Staphylococcus sp. = details: for MIC Staphylococcus aureus (ATCC 29213): strain ATCC 29213; for MIC Staphylococcus aureus (GC 1131): strain GC 1131; for MIC Staphylococcus aureus (GC 4541): strain GC 4541; for MIC Staphylococcus aureus (GC 4542): strain GC 4542; for MIC Staphylococcus aureus-SMITH (GC 4543): strain GC 4543; for MIC Staphylococcus aureus (GC 4544): strain GC 4544; for MIC Staphylococcus aureus (GC 4545): strain GC 4545; for MIC Staphylococcus haemolyticus (GC 4546): strain GC 4546; for MIC Coagulase Negative Staphylococcus (GC 4547): strain GC 4547; for MIC Coagulase Negative Staphylococcus (GC 4548): strain GC 4548; for MIC Coagulase Negative Staphylococcus (GC 4549): strain GC 4549; for MIC Coagulase Negative Staphylococcus (GC 4551): strain GC 4551; for MIC Coagulase Negative Staphylococcus (ID-3941): strain ID-3941; for MIC Staphylococcus aureus (GC 3051): strain GC 3051; for MIC Staphylococcus aureus (GC 3053): strain GC 3053
Procedure: (§1) The minimum inhibitory concentration (MIC), the lowest concentration of the antibiotic which inhibits growth of the test organism, is determined by the broth dilution method using Muller-Hinton II […] (Baltimore Biological Laboratories) following the recommendations of the National Committee for Clinical Laboratory Standards [Methods for dilution antimicrobial susceptibility tests for bacteria that grow aerobically, approved standard M7-A2, National Committee for Clinical Laboratory Standards, Villanova, Pa].
(§2) An inoculum level of 5×10^5 CFU/mL, and a range of antibiotic concentrations (64-0.06 μg/mL) is used. […] The test organisms include a spectrum of Gram-positive bacteria comprised of Staphylococcus sp., Streptococcus sp. and Enterococcus sp. These organisms include recent clinical isolates that are resistant to methicillin, penicillin and/or vancomycin.

Streptococcus sp. = details: broth dilution, 5×10^5 CFU/mL, 18 hours at 35° C.
Procedure: as §1, §2

Enterococcus sp. = details: broth dilution, 5×10^5 CFU/mL, 18 hours at 35° C.
Procedure: as §1, §2

Escherichia coli = details: 5×10^5 CFU/mL, 18 hours at 35° C.
Procedure: as §1, §2

[1] = broth dilution, 18 hours at 35° C.

Row | SMILES | MIC Staphylococcus aureus (ATCC 29213) (Staphylococcus sp.) [µg/mL] | MIC Staphylococcus aureus (GC 1131) (Staphylococcus sp.) [µg/mL] | MIC Staphylococcus aureus (GC 4541) (Staphylococcus sp.) [µg/mL] | MIC Staphylococcus aureus (GC 4542) (Staphylococcus sp.) [µg/mL] | MIC Staphylococcus aureus-SMITH (GC 4543) (Staphylococcus sp.; 18 hours at 35° C.) [µg/mL] | MIC Staphylococcus aureus-SMITH (GC 4543) (Staphylococcus sp.; [1]) [µg/mL] | MIC Staphylococcus aureus (GC 4544) (Staphylococcus sp.) [µg/mL] | MIC Staphylococcus aureus (GC 4545) (Staphylococcus sp.) [µg/mL] | MIC Staphylococcus haemolyticus (GC 4546) (Staphylococcus sp.) [µg/mL] | MIC Staphylococcus haemolyticus (GC 4546) (Staphylococcus sp.; [1]) [µg/mL] | MIC Coagulase Negative Staphylococcus (GC 4547) (Staphylococcus sp.) [µg/mL] | MIC Coagulase Negative Staphylococcus (GC 4547) (Staphylococcus sp.; [1]) [µg/mL] | MIC Coagulase Negative Staphylococcus (GC 4548) (Staphylococcus sp.) [µg/mL] | MIC Coagulase Negative Staphylococcus (GC 4548) (Staphylococcus sp.; [1]) [µg/mL] | MIC Coagulase Negative Staphylococcus (GC 4549) (Staphylococcus sp.) [µg/mL] | MIC Coagulase Negative Staphylococcus (GC 4549) (Staphylococcus sp.; [1]) [µg/mL] | MIC Coagulase Negative Staphylococcus (GC 4551) (Staphylococcus sp.) [µg/mL] | MIC Coagulase Negative Staphylococcus (GC 4551) (Staphylococcus sp.; [1]) [µg/mL] | MIC Streptococcus agalactiae (GC 4564) (Streptococcus sp.) [µg/mL] | MIC Streptococcus pneumoniae (GC 4565) (Streptococcus sp.) [µg/mL] | other results
1 | CC(c1ccccc1)C1NC(=O)CNC(=O)C(CO)NC(=O)C(C(O)C2CNC(=N)N2C2OC(CO)C(O)C(O)C2O)NC(=O)C(C(O)C2CNC(=N)N2)NC(=O)C(Cc2ccc(OC3OC(CO)C(OC4OC(COC(=O)OCc5ccccc5)C(O)C(O)C4O)C(O)C3O)cc2)NC1=O (stereo not drawn) [Example 101a, Cyclo[glycyl-β-methylphenylalanyl-O-[4-O-[6-O-[(phenylmethoxy)carbonyl]hexopyranosyl]-hexopyranosyl]tyrosyl-3-(2-iminoimidazolidin-4-yl)seryl-3-(3-hexopyranosyl-2-iminoimidazolidin-4-yl)serylseryl]] | 2 (≈ 1.4 µM) | 4 (≈ 2.8 µM) | 2 (≈ 1.4 µM) | 4 (≈ 2.8 µM) | 8 (≈ 5.6 µM) | 8 (≈ 5.6 µM) | 4 (≈ 2.8 µM) | 4 (≈ 2.8 µM) | 1 (≈ 0.7 µM) | 1 (≈ 0.7 µM) | 1 (≈ 0.7 µM) | 1 (≈ 0.7 µM) | 1 (≈ 0.7 µM) | 1 (≈ 0.7 µM) | 1 (≈ 0.7 µM) | 1 (≈ 0.7 µM) | 2 (≈ 1.4 µM) | 2 (≈ 1.4 µM) | 1 (≈ 0.7 µM) | <0.5 | MIC Coagulase Negative Staphylococcus (ID-3941) (Staphylococcus sp.): 1 µg/mL (≈ 0.7 µM); MIC Coagulase Negative Staphylococcus (ID-3941) (Staphylococcus sp.; [1]): 1 µg/mL (≈ 0.7 µM); MIC Streptococcus pyogenes (ID-3187) (Streptococcus sp.): 1 µg/mL (≈ 0.7 µM); MIC Enterococccus avium (GC 4558) (Enterococcus sp.): 16 µg/mL (≈ 11.2 µM); MIC Enterococccus faecalis (ATCC 29212) (Enterococcus sp.): 16 µg/mL (≈ 11.2 µM); MIC Enterococccus faecalis (GC 4552) (Enterococcus sp.): 16 µg/mL (≈ 11.2 µM); MIC Enterococccus faecalis (GC 4553) (Enterococcus sp.): 16 µg/mL (≈ 11.2 µM); MIC Enterococccus faecalis (GC 4554) (Enterococcus sp.): 16 µg/mL (≈ 11.2 µM); MIC Enterococccus faecium (GC 2243) (Enterococcus sp.): 16 µg/mL (≈ 11.2 µM); MIC Enterococccus faecium (GC 4556) (Enterococcus sp.): 16 µg/mL (≈ 11.2 µM); MIC Enterococccus faecium (GC 4557) (Enterococcus sp.): 2 µg/mL (≈ 1.4 µM); MIC Enterococcus faecalis (GC 2242) (Enterococcus sp.): 8 µg/mL (≈ 5.6 µM); MIC Escherichia coli (ATCC 25922) (Escherichia coli): 64 µg/mL (≈ 44.8 µM)
2 | N=C1NCC(C(O)C2NC(=O)C(Cc3ccc(OC4OC(CO)C(OC5OC(CO)C(O)C6OC7(OC56)C5CC6CC(C5)CC7C6)C(O)C4O)cc3)NC(=O)C(CC3CCCCC3)NC(=O)CNC(=O)C(CO)NC(=O)C(C(O)C3CNC(=N)N3C3OC(CO)C(O)C(O)C3O)NC2=O)N1 (centres unmarked) [Example 106a, Cyclo[3-cyclohexylalanyl-O-[4-O-[2,3-O-(2-adamantylidene)hexopyranosyl]hexopyranosyl]-tyrosyl-3-(2-iminoimidazolidin-4-yl)seryl-3-(3-hexopyranosyl-2-iminoimidazolidin-4-yl)-serylserylglycyl]] | 2 (≈ 1.41 µM) | 2 (≈ 1.41 µM) | 2 (≈ 1.41 µM) | 2 (≈ 1.41 µM) | 2 (≈ 1.41 µM) | 2 (≈ 1.41 µM) | 4 (≈ 2.82 µM) | 2 (≈ 1.41 µM) | 2 (≈ 1.41 µM) | 2 (≈ 1.41 µM) | 2 (≈ 1.41 µM) | 2 (≈ 1.41 µM) | 1 (≈ 0.704 µM) | 1 (≈ 0.704 µM) | 1 (≈ 0.704 µM) | 1 (≈ 0.704 µM) | 2 (≈ 1.41 µM) | 2 (≈ 1.41 µM) | 0.25 (≈ 0.176 µM) | <0.06 | MIC Staphylococcus aureus (GC 3051) (Staphylococcus sp.): 2 µg/mL (≈ 1.41 µM); MIC Staphylococcus aureus (GC 3053) (Staphylococcus sp.): 2 µg/mL (≈ 1.41 µM); MIC Streptococcus pneumoniae (GC 1894) (Streptococcus sp.): <0.06 µg/mL; MIC Streptococcus pneumonine (ATCC 6301) (Streptococcus sp.): 0.12 µg/mL (≈ 0.0845 µM); MIC Streptococcus pyogenes (GC 4563) (Streptococcus sp.): 0.25 µg/mL (≈ 0.176 µM); MIC Enterococccus avium (GC 4558) (Enterococcus sp.): 4 µg/mL (≈ 2.82 µM); MIC Enterococccus faecalis (ATCC 29212) (Enterococcus sp.): 8 µg/mL (≈ 5.64 µM); MIC Enterococccus faecalis (GC 2691) (Enterococcus sp.): 4 µg/mL (≈ 2.82 µM); MIC Enterococccus faecalis (GC 3059) (Enterococcus sp.): 8 µg/mL (≈ 5.64 µM); MIC Enterococccus faecalis (GC 4552) (Enterococcus sp.): 4 µg/mL (≈ 2.82 µM); MIC Enterococccus faecalis (GC 4553) (Enterococcus sp.): 4 µg/mL (≈ 2.82 µM); MIC Enterococccus faecalis (GC 4554) (Enterococcus sp.): 8 µg/mL (≈ 5.64 µM); MIC Enterococccus faecalis (GC 6189) (Enterococcus sp.): 4 µg/mL (≈ 2.82 µM); MIC Enterococccus faecium (GC 2243) (Enterococcus sp.): 4 µg/mL (≈ 2.82 µM); MIC Enterococccus faecium (GC 4556) (Enterococcus sp.): 8 µg/mL (≈ 5.64 µM); MIC Enterococccus faecium (GC 4557) (Enterococcus sp.): 2 µg/mL (≈ 1.41 µM); MIC Enterococcus faecalis (GC 2242) (Enterococcus sp.): 4 µg/mL (≈ 2.82 µM); MIC Escherichia coli (ATCC 25922) (Escherichia coli): 32 µg/mL (≈ 22.5 µM); MIC Escherichia coli (GC 4559) (Escherichia coli): 32 µg/mL (≈ 22.5 µM); MIC Escherichia coli (GC 4560) (Escherichia coli): 2 µg/mL (≈ 1.41 µM)
3 | N=C1NCC(C(O)C2NC(=O)C(Cc3ccc(OC4OC(CO)C(OC5OC6COC7(OC6C6OC8(OC56)C5CC6CC(C5)CC8C6)C5CC6CC(C5)CC7C6)C(O)C4O)cc3)NC(=O)C(CC3CCCCC3)NC(=O)CNC(=O)C(CO)NC(=O)C(C(O)C3CNC(=N)N3C3OC(CO)C(O)C(O)C3O)NC2=O)N1 (centres unmarked) [Example 106b] | 8 (≈ 5.16 µM) | 8 (≈ 5.16 µM) | 16 (≈ 10.3 µM) | 8 (≈ 5.16 µM) | 8 (≈ 5.16 µM) | 8 (≈ 5.16 µM) | 16 (≈ 10.3 µM) | 8 (≈ 5.16 µM) | 4 (≈ 2.58 µM) | 4 (≈ 2.58 µM) | 8 (≈ 5.16 µM) | 8 (≈ 5.16 µM) | 4 (≈ 2.58 µM) | 4 (≈ 2.58 µM) | 4 (≈ 2.58 µM) | 4 (≈ 2.58 µM) | 8 (≈ 5.16 µM) | 8 (≈ 5.16 µM) | 0.5 (≈ 0.322 µM) | 0.5 (≈ 0.322 µM) | MIC Staphylococcus aureus (GC 3051) (Staphylococcus sp.): 8 µg/mL (≈ 5.16 µM); MIC Staphylococcus aureus (GC 3053) (Staphylococcus sp.): 8 µg/mL (≈ 5.16 µM); MIC Streptococcus pneumoniae (GC 1894) (Streptococcus sp.): <0.12 µg/mL; MIC Streptococcus pneumonine (ATCC 6301) (Streptococcus sp.): 0.5 µg/mL (≈ 0.322 µM); MIC Streptococcus pyogenes (GC 4563) (Streptococcus sp.): 0.5 µg/mL (≈ 0.322 µM); MIC Enterococccus avium (GC 4558) (Enterococcus sp.): 4 µg/mL (≈ 2.58 µM); MIC Enterococccus faecalis (ATCC 29212) (Enterococcus sp.): 8 µg/mL (≈ 5.16 µM); MIC Enterococccus faecalis (GC 2691) (Enterococcus sp.): 16 µg/mL (≈ 10.3 µM); MIC Enterococccus faecalis (GC 3059) (Enterococcus sp.): 16 µg/mL (≈ 10.3 µM); MIC Enterococccus faecalis (GC 4552) (Enterococcus sp.): 8 µg/mL (≈ 5.16 µM); MIC Enterococccus faecalis (GC 4553) (Enterococcus sp.): 8 µg/mL (≈ 5.16 µM); MIC Enterococccus faecalis (GC 4554) (Enterococcus sp.): 16 µg/mL (≈ 10.3 µM); MIC Enterococccus faecalis (GC 6189) (Enterococcus sp.): 8 µg/mL (≈ 5.16 µM); MIC Enterococccus faecium (GC 2243) (Enterococcus sp.): 8 µg/mL (≈ 5.16 µM); MIC Enterococccus faecium (GC 4556) (Enterococcus sp.): 8 µg/mL (≈ 5.16 µM); MIC Enterococccus faecium (GC 4557) (Enterococcus sp.): 4 µg/mL (≈ 2.58 µM); MIC Enterococcus faecalis (GC 2242) (Enterococcus sp.): 8 µg/mL (≈ 5.16 µM); MIC Escherichia coli (ATCC 25922) (Escherichia coli): 64 µg/mL (≈ 41.2 µM); MIC Escherichia coli (GC 4559) (Escherichia coli): 32 µg/mL (≈ 20.6 µM); MIC Escherichia coli (GC 4560) (Escherichia coli): 8 µg/mL (≈ 5.16 µM)
